Source: ChEMBL document CHEMBL4507268 (2021)

What was measured:
Details in all cases: Compound concentration 1.0 uM
[1] = biological target: Epithelial discoidin domain-containing receptor 1 (Homo sapiens) (UniProt Q08345)
[2] = biological target: Protein kinase C theta type (Homo sapiens) (UniProt Q04759)
[3] = biological target: Ephrin type-A receptor 7 (Homo sapiens) (UniProt Q15375)
[4] = biological target: T1, Serine/threonine-protein kinase 4 (Homo sapiens) (UniProt Q13043)
T1 sequence (whole entry): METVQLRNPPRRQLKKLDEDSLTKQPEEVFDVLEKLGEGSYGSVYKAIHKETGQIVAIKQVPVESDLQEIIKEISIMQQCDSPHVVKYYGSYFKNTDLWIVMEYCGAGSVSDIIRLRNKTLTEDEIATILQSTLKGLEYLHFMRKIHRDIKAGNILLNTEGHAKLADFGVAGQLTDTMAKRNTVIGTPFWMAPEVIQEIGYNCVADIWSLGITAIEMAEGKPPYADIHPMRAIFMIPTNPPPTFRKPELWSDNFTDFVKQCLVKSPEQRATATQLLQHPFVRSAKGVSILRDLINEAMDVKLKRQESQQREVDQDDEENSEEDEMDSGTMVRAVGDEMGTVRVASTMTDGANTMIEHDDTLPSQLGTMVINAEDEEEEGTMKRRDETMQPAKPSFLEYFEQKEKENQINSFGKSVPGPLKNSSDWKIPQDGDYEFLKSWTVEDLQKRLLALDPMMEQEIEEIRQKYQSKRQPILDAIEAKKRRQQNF

[5] = biological target: T2, Interleukin-1 receptor-associated kinase 4 (Homo sapiens) (UniProt Q9NWZ3)
T2 sequence (whole entry): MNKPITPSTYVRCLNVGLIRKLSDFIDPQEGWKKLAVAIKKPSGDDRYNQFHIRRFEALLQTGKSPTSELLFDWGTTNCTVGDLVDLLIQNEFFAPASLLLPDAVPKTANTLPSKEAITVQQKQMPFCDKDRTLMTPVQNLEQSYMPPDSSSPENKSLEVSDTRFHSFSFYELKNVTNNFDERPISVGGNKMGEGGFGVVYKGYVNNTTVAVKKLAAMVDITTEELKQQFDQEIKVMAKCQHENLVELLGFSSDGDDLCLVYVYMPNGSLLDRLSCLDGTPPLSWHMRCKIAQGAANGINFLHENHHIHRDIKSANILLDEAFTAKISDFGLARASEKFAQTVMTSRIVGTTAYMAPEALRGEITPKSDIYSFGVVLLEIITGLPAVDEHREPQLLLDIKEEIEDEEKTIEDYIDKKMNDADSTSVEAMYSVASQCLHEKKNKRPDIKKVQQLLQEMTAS

[6] = biological target: Proto-oncogene tyrosine-protein kinase ROS (Homo sapiens) (UniProt P08922)
[7] = biological target: T3, Serine/threonine-protein kinase Nek3 (Homo sapiens) (UniProt P51956)
T3 sequence (whole entry): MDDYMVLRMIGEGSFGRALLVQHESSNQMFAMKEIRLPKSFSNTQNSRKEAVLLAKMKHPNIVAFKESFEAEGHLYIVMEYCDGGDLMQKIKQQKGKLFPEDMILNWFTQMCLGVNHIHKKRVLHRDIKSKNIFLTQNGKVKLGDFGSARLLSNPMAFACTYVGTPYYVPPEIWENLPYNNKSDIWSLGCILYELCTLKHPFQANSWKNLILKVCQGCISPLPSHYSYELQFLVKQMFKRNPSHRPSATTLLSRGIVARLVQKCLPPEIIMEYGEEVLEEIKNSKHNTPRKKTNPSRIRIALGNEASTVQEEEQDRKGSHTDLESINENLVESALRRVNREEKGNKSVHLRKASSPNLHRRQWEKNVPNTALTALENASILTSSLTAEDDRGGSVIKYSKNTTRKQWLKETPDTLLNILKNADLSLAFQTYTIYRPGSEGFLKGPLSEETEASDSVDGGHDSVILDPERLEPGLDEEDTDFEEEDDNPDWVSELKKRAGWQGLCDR

[8] = biological target: T4, Serine/threonine-protein kinase 17A (Homo sapiens) (UniProt Q9UEE5)
T4 sequence (whole entry): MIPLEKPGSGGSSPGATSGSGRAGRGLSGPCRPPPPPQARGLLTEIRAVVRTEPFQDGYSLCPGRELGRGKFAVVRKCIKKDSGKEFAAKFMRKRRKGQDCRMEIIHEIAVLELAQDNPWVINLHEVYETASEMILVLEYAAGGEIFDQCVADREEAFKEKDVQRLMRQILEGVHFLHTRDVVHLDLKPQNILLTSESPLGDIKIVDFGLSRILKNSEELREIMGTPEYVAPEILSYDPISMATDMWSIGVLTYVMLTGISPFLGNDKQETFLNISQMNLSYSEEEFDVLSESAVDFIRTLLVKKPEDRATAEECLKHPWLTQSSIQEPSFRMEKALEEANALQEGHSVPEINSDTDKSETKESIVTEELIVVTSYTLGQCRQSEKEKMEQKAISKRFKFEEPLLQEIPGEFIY

[9] = biological target: Serine/threonine-protein kinase MARK1 (Homo sapiens) (UniProt Q9P0L2)
[10] = biological target: Serine/threonine-protein kinase WNK3 (Homo sapiens) (UniProt Q9BYP7)
[11] = biological target: Tyrosine-protein kinase CSK (Homo sapiens) (UniProt P41240)
[12] = biological target: Calcium/calmodulin-dependent protein kinase type 1 (Homo sapiens) (UniProt Q14012)
[13] = biological target: Tau-tubulin kinase 1 (Homo sapiens) (UniProt Q5TCY1)
[14] = biological target: Casein kinase I isoform delta (Homo sapiens) (UniProt P48730)
[15] = biological target: T5, Serine/threonine-protein kinase 17B (Homo sapiens) (UniProt O94768)
T5 sequence (whole entry): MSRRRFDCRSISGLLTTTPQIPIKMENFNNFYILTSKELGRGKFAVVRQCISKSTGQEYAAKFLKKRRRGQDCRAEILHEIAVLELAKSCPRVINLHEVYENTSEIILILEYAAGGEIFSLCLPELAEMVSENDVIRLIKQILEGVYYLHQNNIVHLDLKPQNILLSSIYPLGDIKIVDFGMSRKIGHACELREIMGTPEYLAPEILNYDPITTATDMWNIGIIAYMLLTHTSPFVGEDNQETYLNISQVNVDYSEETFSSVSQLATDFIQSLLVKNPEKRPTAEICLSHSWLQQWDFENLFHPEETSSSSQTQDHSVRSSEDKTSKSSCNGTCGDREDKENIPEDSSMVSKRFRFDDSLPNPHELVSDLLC

Measured: % residual kinase activity

Chain of Ephrin type-A receptor 7 (Homo sapiens) (Q15375 28-998 limits assumed): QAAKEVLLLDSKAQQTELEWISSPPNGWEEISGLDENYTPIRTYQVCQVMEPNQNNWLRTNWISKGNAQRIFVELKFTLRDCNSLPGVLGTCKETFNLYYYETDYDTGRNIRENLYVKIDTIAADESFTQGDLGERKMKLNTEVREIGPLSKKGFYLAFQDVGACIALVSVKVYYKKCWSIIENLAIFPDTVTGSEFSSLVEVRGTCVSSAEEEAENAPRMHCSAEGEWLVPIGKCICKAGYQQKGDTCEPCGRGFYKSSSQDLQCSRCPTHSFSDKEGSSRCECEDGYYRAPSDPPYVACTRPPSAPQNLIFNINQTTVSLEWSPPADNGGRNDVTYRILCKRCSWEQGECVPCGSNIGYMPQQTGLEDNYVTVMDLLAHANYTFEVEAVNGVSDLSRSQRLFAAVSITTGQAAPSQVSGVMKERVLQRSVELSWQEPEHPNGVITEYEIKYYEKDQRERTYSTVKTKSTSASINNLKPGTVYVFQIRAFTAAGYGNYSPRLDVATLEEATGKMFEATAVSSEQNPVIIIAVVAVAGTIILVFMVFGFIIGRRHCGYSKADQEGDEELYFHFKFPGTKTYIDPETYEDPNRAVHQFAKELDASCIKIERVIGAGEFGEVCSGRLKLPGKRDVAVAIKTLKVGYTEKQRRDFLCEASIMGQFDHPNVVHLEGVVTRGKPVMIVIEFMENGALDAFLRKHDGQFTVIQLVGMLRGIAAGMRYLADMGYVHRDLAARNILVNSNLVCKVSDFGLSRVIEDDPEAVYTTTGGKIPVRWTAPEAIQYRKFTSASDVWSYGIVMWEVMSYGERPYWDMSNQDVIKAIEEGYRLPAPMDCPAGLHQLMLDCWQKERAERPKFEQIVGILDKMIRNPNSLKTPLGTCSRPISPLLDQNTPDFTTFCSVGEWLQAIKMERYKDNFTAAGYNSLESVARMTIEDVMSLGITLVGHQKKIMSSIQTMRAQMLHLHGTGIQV
Chain of Casein kinase I isoform delta (Homo sapiens) (P48730 whole entry, looked up, canonical isoform): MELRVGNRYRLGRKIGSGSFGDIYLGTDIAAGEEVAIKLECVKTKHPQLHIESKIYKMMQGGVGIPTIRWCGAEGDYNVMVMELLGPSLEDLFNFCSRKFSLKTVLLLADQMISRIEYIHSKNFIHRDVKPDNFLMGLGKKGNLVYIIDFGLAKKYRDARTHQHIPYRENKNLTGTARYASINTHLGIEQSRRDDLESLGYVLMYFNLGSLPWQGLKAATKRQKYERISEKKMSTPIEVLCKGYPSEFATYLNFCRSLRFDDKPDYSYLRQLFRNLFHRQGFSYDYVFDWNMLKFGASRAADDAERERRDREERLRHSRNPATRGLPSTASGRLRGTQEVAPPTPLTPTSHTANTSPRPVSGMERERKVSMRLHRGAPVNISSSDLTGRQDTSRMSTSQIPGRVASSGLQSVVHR
Chain of Serine/threonine-protein kinase WNK3 (Homo sapiens) (Q9BYP7 whole entry): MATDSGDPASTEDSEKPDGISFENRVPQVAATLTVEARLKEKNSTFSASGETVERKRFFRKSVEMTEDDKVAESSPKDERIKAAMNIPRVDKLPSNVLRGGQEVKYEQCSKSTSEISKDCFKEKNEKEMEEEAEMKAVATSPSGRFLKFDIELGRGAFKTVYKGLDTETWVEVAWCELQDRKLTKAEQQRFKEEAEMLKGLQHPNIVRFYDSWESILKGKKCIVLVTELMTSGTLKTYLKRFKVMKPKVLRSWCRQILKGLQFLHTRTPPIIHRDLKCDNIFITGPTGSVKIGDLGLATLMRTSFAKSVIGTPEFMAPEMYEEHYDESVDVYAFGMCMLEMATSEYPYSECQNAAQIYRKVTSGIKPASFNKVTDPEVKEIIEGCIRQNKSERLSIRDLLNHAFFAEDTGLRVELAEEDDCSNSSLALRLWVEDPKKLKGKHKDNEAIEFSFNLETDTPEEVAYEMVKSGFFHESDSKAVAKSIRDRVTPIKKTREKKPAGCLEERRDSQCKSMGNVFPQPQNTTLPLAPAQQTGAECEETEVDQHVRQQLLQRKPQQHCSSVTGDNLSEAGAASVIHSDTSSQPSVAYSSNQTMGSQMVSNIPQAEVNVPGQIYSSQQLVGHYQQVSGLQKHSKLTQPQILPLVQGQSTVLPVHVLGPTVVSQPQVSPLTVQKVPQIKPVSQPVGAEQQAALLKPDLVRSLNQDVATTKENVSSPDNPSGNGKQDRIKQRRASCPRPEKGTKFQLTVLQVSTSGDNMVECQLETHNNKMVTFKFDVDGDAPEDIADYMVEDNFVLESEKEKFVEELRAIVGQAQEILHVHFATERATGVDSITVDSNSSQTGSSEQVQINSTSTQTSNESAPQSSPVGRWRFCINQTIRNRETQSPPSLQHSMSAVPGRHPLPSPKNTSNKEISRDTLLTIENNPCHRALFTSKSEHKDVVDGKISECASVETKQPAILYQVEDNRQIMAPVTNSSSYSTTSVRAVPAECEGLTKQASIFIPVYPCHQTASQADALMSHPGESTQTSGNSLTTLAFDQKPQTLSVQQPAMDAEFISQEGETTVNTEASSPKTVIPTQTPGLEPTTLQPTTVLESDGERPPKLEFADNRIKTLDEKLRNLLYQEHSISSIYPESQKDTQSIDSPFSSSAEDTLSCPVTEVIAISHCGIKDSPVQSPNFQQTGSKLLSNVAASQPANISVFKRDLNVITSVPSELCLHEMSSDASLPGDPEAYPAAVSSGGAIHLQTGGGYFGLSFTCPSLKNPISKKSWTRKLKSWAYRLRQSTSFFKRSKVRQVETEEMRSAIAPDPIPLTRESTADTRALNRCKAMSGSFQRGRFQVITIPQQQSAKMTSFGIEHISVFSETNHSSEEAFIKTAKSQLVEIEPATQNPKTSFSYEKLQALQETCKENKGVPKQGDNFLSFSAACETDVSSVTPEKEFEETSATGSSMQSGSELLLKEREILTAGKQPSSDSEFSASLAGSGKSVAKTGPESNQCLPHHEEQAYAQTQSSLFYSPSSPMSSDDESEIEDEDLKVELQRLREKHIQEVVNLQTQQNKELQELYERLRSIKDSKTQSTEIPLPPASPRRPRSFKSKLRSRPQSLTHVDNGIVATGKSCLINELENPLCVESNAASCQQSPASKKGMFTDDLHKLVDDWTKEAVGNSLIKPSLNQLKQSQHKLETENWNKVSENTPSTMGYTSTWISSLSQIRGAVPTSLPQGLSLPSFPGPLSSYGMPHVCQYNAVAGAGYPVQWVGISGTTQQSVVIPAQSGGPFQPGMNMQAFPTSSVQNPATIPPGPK
Chain of Serine/threonine-protein kinase MARK1 (Homo sapiens) (Q9P0L2 whole entry, looked up): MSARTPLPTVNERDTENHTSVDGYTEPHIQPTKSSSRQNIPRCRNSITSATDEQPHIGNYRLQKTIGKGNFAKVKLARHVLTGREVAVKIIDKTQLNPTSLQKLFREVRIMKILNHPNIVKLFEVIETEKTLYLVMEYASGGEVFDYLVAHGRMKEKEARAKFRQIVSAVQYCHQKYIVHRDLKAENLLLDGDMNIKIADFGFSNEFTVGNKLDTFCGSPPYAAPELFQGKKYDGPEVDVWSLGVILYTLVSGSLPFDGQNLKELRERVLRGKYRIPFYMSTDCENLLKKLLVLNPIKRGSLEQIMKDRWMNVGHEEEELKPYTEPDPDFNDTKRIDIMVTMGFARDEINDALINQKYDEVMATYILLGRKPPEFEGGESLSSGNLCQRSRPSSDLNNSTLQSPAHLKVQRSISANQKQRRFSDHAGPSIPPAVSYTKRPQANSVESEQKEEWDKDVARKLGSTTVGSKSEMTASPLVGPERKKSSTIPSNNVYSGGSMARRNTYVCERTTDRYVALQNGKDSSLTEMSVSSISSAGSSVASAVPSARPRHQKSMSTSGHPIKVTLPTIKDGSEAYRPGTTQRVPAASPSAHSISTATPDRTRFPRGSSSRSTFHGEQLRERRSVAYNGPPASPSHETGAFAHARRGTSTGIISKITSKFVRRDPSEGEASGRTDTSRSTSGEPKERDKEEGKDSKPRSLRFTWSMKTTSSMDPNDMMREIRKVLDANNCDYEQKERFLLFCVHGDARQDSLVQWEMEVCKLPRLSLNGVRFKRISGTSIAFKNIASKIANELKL
Chain of Protein kinase C theta type (Homo sapiens) (Q04759 whole entry, looked up): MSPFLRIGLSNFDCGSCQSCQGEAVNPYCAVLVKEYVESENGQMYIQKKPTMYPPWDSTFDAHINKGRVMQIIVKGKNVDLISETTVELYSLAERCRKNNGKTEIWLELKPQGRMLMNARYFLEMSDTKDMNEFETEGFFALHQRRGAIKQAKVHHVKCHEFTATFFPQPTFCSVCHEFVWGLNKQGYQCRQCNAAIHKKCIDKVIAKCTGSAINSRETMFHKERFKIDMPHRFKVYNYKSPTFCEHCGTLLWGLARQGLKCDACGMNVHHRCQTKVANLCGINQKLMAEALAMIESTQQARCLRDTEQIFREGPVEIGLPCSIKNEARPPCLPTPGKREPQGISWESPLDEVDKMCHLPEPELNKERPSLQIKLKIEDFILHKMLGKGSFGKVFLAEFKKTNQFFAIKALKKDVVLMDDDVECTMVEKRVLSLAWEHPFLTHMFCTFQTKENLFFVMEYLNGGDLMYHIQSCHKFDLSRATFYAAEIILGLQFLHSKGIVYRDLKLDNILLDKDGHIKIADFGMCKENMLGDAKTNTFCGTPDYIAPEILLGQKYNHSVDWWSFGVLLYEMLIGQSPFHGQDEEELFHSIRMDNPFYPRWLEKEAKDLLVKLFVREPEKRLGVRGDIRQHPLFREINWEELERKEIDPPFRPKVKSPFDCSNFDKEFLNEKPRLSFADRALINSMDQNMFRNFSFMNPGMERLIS
Chain of Calcium/calmodulin-dependent protein kinase type 1 (Homo sapiens) (Q14012 whole entry, looked up): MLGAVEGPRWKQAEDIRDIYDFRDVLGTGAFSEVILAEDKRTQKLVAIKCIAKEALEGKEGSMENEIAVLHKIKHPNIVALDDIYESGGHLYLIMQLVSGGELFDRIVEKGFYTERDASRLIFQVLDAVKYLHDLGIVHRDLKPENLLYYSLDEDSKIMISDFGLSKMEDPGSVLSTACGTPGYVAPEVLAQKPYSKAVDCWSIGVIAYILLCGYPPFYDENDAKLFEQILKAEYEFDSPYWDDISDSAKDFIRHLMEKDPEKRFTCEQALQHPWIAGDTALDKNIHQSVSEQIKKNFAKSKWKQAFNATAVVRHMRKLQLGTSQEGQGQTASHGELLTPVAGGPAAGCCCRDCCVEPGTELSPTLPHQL

CN1CCN(c2cnc3c(C4CCN(C(=O)c5ccc(OC(F)(F)F)cc5N)CC4)ncnc3c2)CC1 [BAY-885]
inactive: [1] 100% | [2] 115% | [3] 92% | [4] 117% | [5] 106% | [6] 111% | [7] 111% | [8] 85% | [9] 112% | [10] 107% | [11] 102% | [12] 109% | [13] 95% | [14] 116% | [15] 117%
